The text below walks through data of patent US9567342B2, “Certain protein kinase inhibitors” (SHANGHAI FOCHON PHARMACEUTICAL CO., LTD., priority 2012, dated 2017).

SMILES strings stand for the structures. pIC50: −log10 of the molar value. A value given as a limit tells only on which side of the number the result lay.

The test system of the assay is SU-DHL-1 cells. As to the kind of experiment: Inhibition activity of cell proliferation (CCK-8 assay). Type of assay: cell-based. The note with it: Homo sapiens, 72 h exposure. How it is done: SU-DHL-1 cells were seeded in 96-well tissue culture plates. On the next day, cells were exposed to various concentrations of compounds and further cultured for 72 h. Cell proliferation was then determined using Cell Counting Kit-8 [(CCK-8), Dojindo]assay. Briefly, add 10 μL of the CCK-8 solution to each well of the plate. Incubate the plate for 1-4 hours in the incubator. Measure the absorbance at 450 nm using a multi-well spectrophotometer (SpectraMAX 190, Molecular Devices). The inhibition rate (%) was calculated using the following equation: [1−(A450 Compound/A450 Control)]×100%. IC50 values were calculated according to inhibition curve by four-parameter fit.
Take `Cc1cc(Nc2nc(Nc3ccccc3S(=O)(=O)C(C)C)c3c(C)n[nH]c3n2)c2c(c1C1CCNCC1)CCO2` [Example 1]: the pIC50 was 7.59.

Consider `Cc1cc(Nc2nc(Nc3ccccc3S(=O)(=O)C(C)C)c3c(C)n[nH]c3n2)c2c(c1C1CCN(C)CC1)CCO2` [Example 2, N-4-(2-(isopropylsulfonyl)phenyl)-3-methyl-N-6-(5-methyl-4-(1-methylpiperidin-4-yl)-2,3-dihydrobenzofuran-7-yl)-1H-pyrazolo[3,4-d]pyrimidine-4,6-diamine], for which the pIC50 is 7.72.

As for `Cc1cc(Nc2nc(Nc3ccccc3S(=O)(=O)C(C)C)c3c(C)n[nH]c3n2)c2c(c1C1CCNCC1)C[C@@H](C)O2` [Example 3, (R)—N-6-(2,5-dimethyl-4-(piperidin-4-yl)-2,3-dihydrobenzofuran-7-yl)-N-4-(2-(isopropylsulfonyl)-phenyl)-3-methyl-1H-pyrazolo[3,4-d]pyrimidine-4,6-diamine], the pIC50 is 7.21.

The compound `Cc1cc(Nc2nc(Nc3ccccc3S(=O)(=O)C(C)C)c3c(C)n[nH]c3n2)c2c(c1C1CCNCC1)C[C@H](C)O2` [Example 5] had a negative logarithm of the IC50 (pIC50) of 7.92.

`Cc1cc(Nc2nc(Nc3ccccc3S(=O)(=O)C(C)C)c3c(C)n[nH]c3n2)c2c(c1C1CCN(C)CC1)C[C@H](C)O2` [Example 6]: the pIC50 was 7.46. This pIC50 lies 0.46 log units lower than the previous one.

`Cc1cc(Nc2nc(Nc3ccccc3S(=O)(=O)C(C)C)c3c(C)n[nH]c3n2)c2c(c1C1CCNCC1)CC(CO)O2` (centres unmarked) [Example 7, (7-(4-(2-(isopropylsulfonyl)phenylamino)-3-methyl-1H-pyrazolo[3,4-d]pyrimidin-6-ylamino)-5-methyl-4-(piperidin-4-yl)-2,3-dihydrobenzofuran-2-yl)methanol] had a pIC50 of 6.53. Compared with the last compound, the pIC50 is 0.93 log units lower.

`COCC1Cc2c(c(Nc3nc(Nc4ccccc4S(=O)(=O)C(C)C)c4c(C)n[nH]c4n3)cc(C)c2C2CCNCC2)O1` (centres unmarked) [Example 8, N-4-(2-(isopropylsulfonyl)phenyl)-N-6-(2-(methoxymethyl)-5-methyl-4-(piperidin-4-yl)-2,3-dihydrobenzofuran-7-yl)-3-methyl-1H-pyrazolo[3,4-d]pyrimidine-4,6-diamine]: the negative-log IC50 (pIC50) was 7.28.

For the compound `Cc1cc(Nc2ncc(Cl)c(Nc3ccccc3S(=O)(=O)C(C)C)n2)c2c(c1C1CCNCC1)C[C@@H](C)O2` [Example 9, (R)-5-chloro-N-2-(2,5-dimethyl-4-(piperidin-4-yl)-2,3-dihydrobenzofuran-7-yl)-N-4-(2-(isopropylsulfonyl)phenyl)pyrimidine-2,4-diamine], the pIC50 is 7.01.

Compound `Cc1cc(Nc2ncc(Cl)c(Nc3ccccc3S(=O)(=O)C(C)C)n2)c2c(c1C1CCN(C)CC1)C[C@@H](C)O2` [Example 10, (R)-5-chloro-N-2-(2,5-dimethyl-4-(1-methylpiperidin-4-yl)-2,3-dihydrobenzofuran-7-yl)-N-4-(2-(isopropylsulfonyl)phenyl)pyrimidine-2,4-diamine] showed a negative-log IC50 (pIC50) greater than 9.70.

Turning to `Cc1cc(Nc2ncc(Cl)c(Nc3ccccc3S(=O)(=O)C(C)C)n2)c2c(c1C1CCNCC1)C[C@H](C)O2` [Example 11, (S)-5-chloro-N-2-(2,5-dimethyl-4-(piperidin-4-yl)-2,3-dihydrobenzofuran-7-yl)-N-4-(2-(isopropylsulfonyl)phenyl)pyrimidine-2,4-diamine], the negative-log IC50 (pIC50) is greater than 8.39.

The compound `Cc1cc(Nc2ncc(Cl)c(Nc3ccccc3S(=O)(=O)C(C)C)n2)c2c(c1C1CCN(C)CC1)C[C@H](C)O2` [Example 12] had a pIC50 of 8.40.

`Cc1cc(Nc2ncc(Cl)c(Nc3ccccc3S(=O)(=O)C(C)C)n2)c2c(c1C1CCNCC1)CCO2` [Example 13]: the negative-log IC50 (pIC50) is greater than 8.39.

Regarding `Cc1cc(Nc2ncc(Cl)c(Nc3ccccc3S(=O)(=O)C(C)C)n2)c2c(c1C1CCN(C)CC1)CCO2` [Example 14], the pIC50 is 8.18.

For the compound `CC(=O)N1CCC(c2c(C)cc(Nc3ncc(Cl)c(Nc4ccccc4S(=O)(=O)C(C)C)n3)c3c2C[C@H](C)O3)CC1` [Example 15, (S)-1-(4-(7-((5-chloro-4-((2-(isopropylsulfonyl)phenyl)amino)pyrimidin-2-yl)amino)-2,5-dimethyl-2,3-dihydrobenzofuran-4-yl)piperidin-1-yl)ethanone], the negative logarithm of the IC50 (pIC50) was 7.42.

Consider `CC(=O)N1CCC(c2c(C)cc(Nc3ncc(Cl)c(Nc4ccccc4S(=O)(=O)C(C)C)n3)c3c2C[C@@H](C)O3)CC1` [Example 16, (R)-1-(4-(7-((5-chloro-4-((2-(isopropylsulfonyl)phenyl)amino)pyrimidin-2-yl)amino)-2,5-dimethyl-2,3-dihydrobenzofuran-4-yl)piperidin-1-yl)ethanone], for which the pIC50 is 7.94.

The compound `Cc1cc(Nc2ncc(Cl)c(Nc3ccccc3S(=O)(=O)C(C)C)n2)c2c(c1C1CCN(S(C)(=O)=O)CC1)C[C@H](C)O2` [Example 17, (S)-5-chloro-N-2-(2,5-dimethyl-4-(1-(methylsulfonyl)piperidin-4-yl)-2,3-dihydrobenzofuran-7-yl)-N-4-(2-(isopropylsulfonyl)phenyl)pyrimidine-2,4-diamine] showed a negative logarithm of the IC50 (pIC50) of 7.16.

In turn, `Cc1cc(Nc2ncc(Cl)c(Nc3ccccc3S(=O)(=O)C(C)C)n2)c2c(c1C1CCN(S(C)(=O)=O)CC1)C[C@@H](C)O2` [Example 18] gave a pIC50 of 7.80.

`Cc1cc(Nc2ncc(Cl)c(Nc3ccccc3S(=O)(=O)C(C)C)n2)c2c(c1C1CCN(CC(=O)O)CC1)C[C@H](C)O2` [Example 19, (S)-2-(4-(7-((5-chloro-4-((2-(isopropylsulfonyl)phenyl)amino)pyrimidin-2-yl)amino)-2,5-dimethyl-2,3-dihydrobenzofuran-4-yl)piperidin-1-yl)acetic acid] showed a pIC50 of 8.31.

The compound `Cc1cc(Nc2ncc(Cl)c(Nc3ccccc3S(=O)(=O)C(C)C)n2)c2c(c1C1CCN(CC(=O)O)CC1)C[C@@H](C)O2` [Example 20, (R)-2-(4-(7-((5-chloro-4-((2-(isopropylsulfonyl)phenyl)amino)pyrimidin-2-yl)amino)-2,5-dimethyl-2,3-dihydrobenzofuran-4-yl)piperidin-1-yl)acetic acid] showed a pIC50 of 7.21.

The compound `Cc1cc(Nc2ncc(Cl)c(Nc3ccccc3S(=O)(=O)C(C)C)n2)c2c(c1C1CCN(C(=O)[C@H](C)N)CC1)C[C@H](C)O2` [Example 21, (S)-2-amino-1-(4-((S)-7-((5-chloro-4-((2-(isopropylsulfonyl)phenyl)amino)pyrimidin-2-yl)amino)-2,5-dimethyl-2,3-dihydrobenzofuran-4-yl)piperidin-1-yl)propan-1-one] had a pIC50 of 7.16.

Take `Cc1cc(Nc2ncc(Cl)c(Nc3ccccc3S(=O)(=O)C(C)C)n2)c2c(c1C1CCN(C(=O)[C@H](C)N)CC1)C[C@@H](C)O2` [Example 22, (S)-2-amino-1-(4-((R)-7-((5-chloro-4-((2-(isopropylsulfonyl)phenyl)amino)pyrimidin-2-yl)amino)-2,5-dimethyl-2,3-dihydrobenzofuran-4-yl)piperidin-1-yl)propan-1-one]: the negative-log IC50 (pIC50) was 7.07. This pIC50 and that of the compound before are within 0.2 log units of each other.

Turning to `Cc1cc(Nc2ncc(Cl)c(Nc3ccccc3S(=O)(=O)C(C)C)n2)c2c(c1C1CCN(C[C@@H](C)O)CC1)C[C@@H](C)O2` [Example 23, (R)-1-(4-((R)-7-((5-chloro-4-((2-(isopropylsulfonyl)phenyl)amino)pyrimidin-2-yl)amino)-2,5-dimethyl-2,3-dihydrobenzofuran-4-yl)piperidin-1-yl)propan-2-ol], the pIC50 is 7.91.

In turn, `Cc1cc(Nc2ncc(Cl)c(Nc3ccccc3S(=O)(=O)C(C)C)n2)c2c(c1C1CCN(C[C@H](C)O)CC1)C[C@@H](C)O2` [Example 24, (S)-1-(4-((R)-7-((5-chloro-4-((2-(isopropylsulfonyl)phenyl)amino)pyrimidin-2-yl)amino)-2,5-dimethyl-2,3-dihydrobenzofuran-4-yl)piperidin-1-yl)propan-2-ol] gave a negative-log IC50 (pIC50) of 8.08. The pIC50 values of the last two compounds are within 0.2 log units of each other.

As for `Cc1cc(Nc2ncc(Cl)c(Nc3ccccc3S(=O)(=O)C(C)C)n2)c2c(c1C1CCN(CC(N)=O)CC1)C[C@H](C)O2` [Example 25, (S)-2-(4-(7-((5-chloro-4-((2-(isopropylsulfonyl)phenyl)amino)pyrimidin-2-yl)amino)-2,5-dimethyl-2,3-dihydrobenzofuran-4-yl)piperidin-1-yl)acetamide], the negative-log IC50 (pIC50) is 7.44.

As to `Cc1cc(Nc2ncc(Cl)c(Nc3ccccc3S(=O)(=O)C(C)C)n2)c2c(c1C1CCN(CC(N)=O)CC1)C[C@@H](C)O2` [Example 26, (R)-2-(4-(7-((5-chloro-4-((2-(isopropylsulfonyl)phenyl)amino)pyrimidin-2-yl)amino)-2,5-dimethyl-2,3-dihydrobenzofuran-4-yl)piperidin-1-yl)acetamide], the pIC50 was 7.86.

For the compound `Cc1cc(Nc2ncc(Cl)c(Nc3ccccc3S(=O)(=O)C(C)C)n2)c2c(c1C1CCN(CC(=O)N(C)C)CC1)C[C@H](C)O2` [Example 27, (S)-2-(4-(7-((5-chloro-4-((2-(isopropylsulfonyl)phenyl)amino)pyrimidin-2-yl)amino)-2,5-dimethyl-2,3-dihydrobenzofuran-4-yl)piperidin-1-yl)-N,N-dimethylacetamide], the pIC50 was 7.43.

Consider `Cc1cc(Nc2ncc(Cl)c(Nc3ccccc3S(=O)(=O)C(C)C)n2)c2c(c1C1CCN(CC(=O)N(C)C)CC1)C[C@@H](C)O2` [Example 28, (R)-2-(4-(7-((5-chloro-4-((2-(isopropylsulfonyl)phenyl)amino)pyrimidin-2-yl)amino)-2,5-dimethyl-2,3-dihydrobenzofuran-4-yl)piperidin-1-yl)-N,N-dimethylacetamide], for which the pIC50 is 7.33.

Compound `Cc1cc(Nc2ncc(Cl)c(Nc3ccccc3S(=O)(=O)C(C)C)n2)c2c(c1C1CCN(CCS(C)(=O)=O)CC1)C[C@H](C)O2` [Example 29] had a negative logarithm of the IC50 (pIC50) of 7.19.

`Cc1cc(Nc2ncc(Cl)c(Nc3ccccc3S(=O)(=O)C(C)C)n2)c2c(c1C1CCN(CCS(C)(=O)=O)CC1)C[C@@H](C)O2` [Example 30] gave a pIC50 of 7.76.
